Broadly, the IC50 is the concentration at which inhibition is half-maximal.

One experiment has as its system HIV. Put plainly: MT4 Assay (anti-HIV activity). The note with it: Human immunodeficiency virus 1, 96 h, read-out: HIV MT4 Assay IC50, HTLV-1 transformed cell line MT-4, cell titer glo, 10 point dose response curve. The class given is cell-based. The essentials:
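MT-4 cells (HTLV-1 transformed) were used for antiviral activity and cytotoxicity, run in parallel, with luminescence read by CellTiter-Glo 96 hours later. Percent inhibition was expressed against the no-compound control. IC50s came from 10-point curves of 3-4-fold serial dilutions spanning >1000-fold.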
On the technique in general: In ATP-based viability assays light output follows the ATP content of the culture.
For `Cc1ccc(-c2c(C(OC(C)(C)C)C(=O)O)n(C)c(=O)c3ccccc23)c(C)c1` (centres unmarked) [Example 34, 2-(tert-butoxy)-2-[4-(2,4-dimethylphenyl)-2-methyl-1-oxo-1,2-dihydroisoquinolin-3-yl]acetic acid], the IC50 came to 410 nM.
Regarding `Cc1c(-c2c([C@H](OC(C)(C)C)C(=O)O)n(C)c(=O)c3cc(OCc4ccc(F)cc4F)ccc23)ccc2c1CCCO2` [Example 148, (2S)-2-(tert-butoxy)-2-{7-[(2,4-difluorophenyl)methoxy]-2-methyl-4-(5-methyl-3,4-dihydro-2H-1-benzopyran-6-yl)-1-oxo-1,2-dihydroisoquinolin-3-yl}acetic acid], the IC50 turned out to be 50 nM.
As to `Cc1c(-c2c(C(OC(C)(C)C)C(=O)O)n(C)c(=O)c3cc(OCCO)ccc23)ccc2c1CCCO2` (centres unmarked) [Example 4, tert-Butoxy-[7-(2-hydroxy-ethoxy)-2-methyl-4-(5-methyl-chroman-6-yl)-1-oxo-1,2-dihydro-isoquinolin-3-yl]-acetic acid], the IC50 came to 3700 nM.
The same measure, in the same setting: the value for `Cc1ccc(-c2c(C(OC(C)(C)C)C(=O)O)n(C)c(=O)c3cc(CN4CCOCC4)ccc23)cc1C` (centres unmarked) [Example 181] was 270 nM; that for `Cc1c(-c2c(C(OC(C)(C)C)C(=O)O)n(C)c(=O)c3ccccc23)cc(Cl)c2c1CCCO2` (centres unmarked) [Example 70, 2-(tert-butoxy)-2-[4-(8-chloro-5-methyl-3,4-dihydro-2H-1-benzopyran-6-yl)-2-methyl-1-oxo-1,2-dihydroisoquinolin-3-yl]acetic acid] was 1230 nM; that for `Cc1nc(COc2ccc3c(-c4cc(F)c5c(c4C)CCCO5)c(C(OC(C)(C)C)C(=O)O)n(C)c(=O)c3c2)c(C)o1` (centres unmarked) [Example 133, 2-(tert-butoxy)-2-{7-[(dimethyl-1,3-oxazol-4-yl)methoxy]-4-(8-fluoro-5-methyl-3,4-dihydro-2H-1-benzopyran-6-yl)-2-methyl-1-oxo-1,2-dihydroisoquinolin-3-yl}acetic acid] was 930 nM.
Same read-out and setting: the value for `Cn1c(C(OC(C)(C)C)C(=O)O)c(-c2cccc(OC(F)(F)F)c2)c2ccccc2c1=O` (centres unmarked) [Example 16, 2-(tert-butoxy)-2-{2-methyl-1-oxo-4-[3-(trifluoromethoxy)phenyl]-1,2-dihydroisoquinolin-3-yl}acetic acid] was 20700 nM; that for `Cc1c(-c2c([C@H](OC(C)(C)C)C(=O)O)n(C)c(=O)c3cc(Br)ccc23)cc(F)c2c1CCCO2` (atropisomer, axis not shown; (M)) [Example 164, (2S)(M)-[7-bromo-4-(8-fluoro-5-methyl-3,4-dihydro-2H-chromen-6-yl)-2-methyl-1-oxo-1,2-dihydro-3-isoquinolinyl][(1,1-dimethylethyl)oxy]ethanoic acid] was 460 nM; that for `Cc1ccc(-c2c(C(OC(C)(C)C)C(=O)O)n(C)c(=O)c3cc(CNCc4ccc5c(-c6ccc(C)c(C)c6)c(C(OC(C)(C)C)C(=O)O)n(C)c(=O)c5c4)ccc23)cc1C` (centres unmarked) [Example 180, 2,2′-(iminobis{methanediyl[4-(3,4-dimethylphenyl)-2-methyl-1-oxo-1,2-dihydroisoquinoline-7,3-diyl]})bis{[(1,1-dimethylethyl)oxy]acetic acid}] was 12400 nM.
Same read-out and setting: the figure for `Cc1c(-c2c(C(OC(C)(C)C)C(=O)O)n(C)c(=O)c3ccc(F)cc23)ccc2c1CCCO2` (centres unmarked) [Example 69, 2-(tert-butoxy)-2-[6-fluoro-2-methyl-4-(5-methyl-3,4-dihydro-2H-1-benzopyran-6-yl)-1-oxo-1,2-dihydroisoquinolin-3-yl]acetic acid] is 570 nM; for `Cc1c(-c2c(C(OC(C)(C)C)C(=O)O)n(C)c(=O)c3cc(OCc4cccs4)ccc23)ccc2c1CCCO2` (centres unmarked) [Example 142, 2-(tert-butoxy)-2-[2-methyl-4-(5-methyl-3,4-dihydro-2H-1-benzopyran-6-yl)-1-oxo-7-(thiophen-2-ylmethoxy)-1,2-dihydroisoquinolin-3-yl]acetic acid] it is 30 nM.
For `Cn1c(C(OC(C)(C)C)C(=O)O)c(-c2ccc(C(F)(F)F)cc2)c2ccccc2c1=O` (centres unmarked) [Example 17, 2-(tert-butoxy)-2-{2-methyl-1-oxo-4-[4-(trifluoromethyl)phenyl]-1,2-dihydroisoquinolin-3-yl}acetic acid], the IC50 came to 18400 nM.
With `Cn1c(C(OC(C)(C)C)C(=O)O)c(-c2ccc3c(c2Cl)OCCC3)c2ccccc2c1=O` (centres unmarked) [Example 37, 2-(tert-butoxy)-2-[4-(8-chloro-3,4-dihydro-2H-1-benzopyran-7-yl)-2-methyl-1-oxo-1,2-dihydroisoquinolin-3-yl]acetic acid], the IC50 was 33200 nM.
On the same count and under the same terms, the figure for `CCn1c(C(OC(C)(C)C)C(=O)O)c(-c2ccc3c(c2C)CCCO3)c2ccccc2c1=O` (centres unmarked) [Example 77, 2-(tert-butoxy)-2-[2-ethyl-4-(5-methyl-3,4-dihydro-2H-1-benzopyran-6-yl)-1-oxo-1,2-dihydroisoquinolin-3-yl]acetic acid] is 490 nM; for `Cc1c(-c2c(C(OC(C)(C)C)C(=O)O)n(C)c(=O)c3cc(OCc4cccnc4)ccc23)ccc2c1CCCO2` (centres unmarked) [Example 97, 2-(tert-butoxy)-2-[2-methyl-4-(5-methyl-3,4-dihydro-2H-1-benzopyran-6-yl)-1-oxo-7-(pyridin-3-ylmethoxy)-1,2-dihydroisoquinolin-3-yl]acetic acid] it is 370 nM.
`COc1ccc(-c2c(C(OC(C)(C)C)C(=O)O)n(C)c(=O)c3ccccc23)cc1` (centres unmarked) [Example 8, 2-(tert-butoxy)-2-[4-(4-methoxyphenyl)-2-methyl-1-oxo-1,2-dihydroisoquinolin-3-yl]acetic acid]: the IC50 turned out to be 1300 nM.
Consider `Cc1c(-c2c(C(OC(C)(C)C)C(=O)O)n(C)c(=O)c3cc(OCc4cc(F)ccc4F)ccc23)ccc2c1CCCO2` (centres unmarked) [Example 95, 2-(tert-butoxy)-2-{7-[(2,5-difluorophenyl)methoxy]-2-methyl-4-(5-methyl-3,4-dihydro-2H-1-benzopyran-6-yl)-1-oxo-1,2-dihydroisoquinolin-3-yl}acetic acid], for which the IC50 was 90 nM.
The same measure, in the same setting: the figure for `Cc1c(-c2c(C(OC(C)(C)C)C(=O)O)n(C)c(=O)c3cc(OCCN(C)C)ccc23)ccc2c1CCCO2` (centres unmarked) [Example 85, 2-(tert-butoxy)-2-{7-[2-(dimethylamino)ethoxy]-2-methyl-4-(5-methyl-3,4-dihydro-2H-1-benzopyran-6-yl)-1-oxo-1,2-dihydroisoquinolin-3-yl}acetic acid] is 7630 nM.
The same measure, in the same setting: the figure for `Cc1c(-c2c([C@H](OC(C)(C)C)C(=O)O)n(C)c(=O)c3cc(-c4ccccc4)ccc23)cc(F)c2c1CCCO2` (atropisomer, axis not shown; (M)) [Example 204, (2S)(M)-[(1,1-dimethylethyl)oxy][4-(8-fluoro-5-methyl-3,4-dihydro-2H-chromen-6-yl)-2-methyl-1-oxo-7-phenyl-1,2-dihydro-3-isoquinolinyl]ethanoic acid] is 30 nM; for `Cc1c(-c2c(C(OC(C)(C)C)C(=O)O)n(C)c(=O)c3cc(OCc4ccc(F)cc4F)ccc23)ccc2c1CCCO2` (centres unmarked) [Example 134, 2-(tert-butoxy)-2-{7-[(2,4-difluorophenyl)methoxy]-2-methyl-4-(5-methyl-3,4-dihydro-2H-1-benzopyran-6-yl)-1-oxo-1,2-dihydroisoquinolin-3-yl}acetic acid] it is 70 nM; for `Cc1c(-c2c([C@H](OC3(C)CCC3)C(=O)O)n(C)c(=O)c3ccccc23)cc(F)c2c1CCCO2` (atropisomer, axis not shown; (M)) [Example 163, (2S)(M)-2-[4-(8-fluoro-5-methyl-3,4-dihydro-2H-1-benzopyran-6-yl)-2-methyl-1-oxo-1,2-dihydroisoquinolin-3-yl]-2-(1-methylcyclobutoxy)acetic acid] it is 110 nM.
On to `Cn1c(C(OC(C)(C)C)C(=O)O)c(-c2ccc3c(c2)CCCO3)c2cccc(F)c2c1=O` (centres unmarked) [Example 35, 2-(tert-butoxy)-2-[4-(3,4-dihydro-2H-1-benzopyran-6-yl)-8-fluoro-2-methyl-1-oxo-1,2-dihydroisoquinolin-3-yl]acetic acid], for which the IC50 is 1890 nM.
The same measure, in the same setting: the value for `Cc1ccc(COc2ccc3c(-c4cc(F)c5c(c4C)CCCO5)c([C@H](OC(C)(C)C)C(=O)O)n(C)c(=O)c3c2)s1` [Example 113, (2S)-2-(tert-butoxy)-2-[4-(8-fluoro-5-methyl-3,4-dihydro-2H-1-benzopyran-6-yl)-2-methyl-7-[(5-methylthiophen-2-yl)methoxy]-1-oxo-1,2-dihydroisoquinolin-3-yl]acetic acid] was 30 nM; that for `Cc1c(-c2c(C(OC(C)(C)C)C(=O)O)n(C)c(=O)c3c(F)cccc23)ccc2c1CCCO2` (centres unmarked) [Example 83, 2-(tert-butoxy)-2-[8-fluoro-2-methyl-4-(5-methyl-3,4-dihydro-2H-1-benzopyran-6-yl)-1-oxo-1,2-dihydroisoquinolin-3-yl]acetic acid] was 500 nM; that for `Cc1c(-c2c([C@H](OC(C)(C)C)C(=O)O)n(C)c(=O)c3cc(-c4ccc(F)cc4)ccc23)cc(F)c2c1CCCO2` (atropisomer, axis not shown; (M)) [Example 209, (S)(M)-2-(tert-butoxy)-2-(4-(8-fluoro-5-methylchroman-6-yl)-7-(4-fluorophenyl)-2-methyl-1-oxo-1,2-dihydroisoquinolin-3-yl)acetic acid] was 20 nM.

The same experiment, now with this note: read-out: HIV MT4 Assay IC50; HTLV-1 transformed cell line MT-4; 96 hours; cell titer glo; 10 point dose response curve.
Regarding `Cc1c(-c2c([C@H](OC(C)(C)C)C(=O)O)n(C)c(=O)c3ccccc23)cc(F)c2c1CCCO2` (atropisomer, axis not shown; (M)) [Example 159, (2S)(M)-2-(tert-butoxy)-2-(4-(8-fluoro-5-methylchroman-6-yl)-2-methyl-1-oxo-1,2-dihydroisoquinolin-3-yl)acetic acid], the IC50 came out at 30 nM.

The values are drawn from US9029391B2 (priority 2011, dated 2015).
